Where two headings read alike, the source gives them in different places.
What was measured:
MAP2K7 = system: T1, MAP2K7; assay: KiNativ profiling in H3255 cells; assay type: cell-based, human; conditions: 2.5 µM; Lys2; DVKPSNILLDER
T1 construct: purchased ActivX Biosciences (KiNativ)
How it was run: (§1)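 ZNL-0056 (2.5 μM) or DMSO applied to H3255 cells for 2 h; harvest in ice-cold PBS containing protease/phosphatase inhibitors; KiNativ.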

CHK2 = system: T2, CHK2; assay: KiNativ profiling in H3255 cells; assay type: cell-based, human; conditions: 2.5 µM
T2 construct: purchased ActivX Biosciences (KiNativ)
How it was run: as §1

PKN2 = system: T3, PKN2; assay: KiNativ profiling in H3255 cells; assay type: cell-based, human; conditions: 2.5 µM; Lys2; DLKLDNLLLDTEGFVK
T3 construct: purchased ActivX Biosciences (KiNativ)
How it was run: as §1

Erk5 = system: T4, Erk5; assay: KiNativ profiling in H3255 cells; assay type: cell-based, human; conditions: 2.5 µM; Lys2; DLKPSNLLVNENCELK
T4 construct: purchased ActivX Biosciences (KiNativ)
How it was run: as §1

PKN1 = system: T5, PKN1; assay: KiNativ profiling in H3255 cells; assay type: cell-based, human; conditions: 2.5 µM; Lys1; VLLSEFRPSGELFAIKALK
T5 construct: purchased ActivX Biosciences (KiNativ)
How it was run: as §1

AKT1 = system: T6, AKT1; assay: KiNativ profiling in H3255 cells; assay type: cell-based, human; conditions: 2.5 µM; ATP Loop; GTFGKVILVK
T6 construct: purchased ActivX Biosciences (KiNativ)
How it was run: as §1

MAP3K3 = system: T7, MAP3K3; assay: KiNativ profiling in H3255 cells; assay type: cell-based, human; conditions: 2.5 µM; Lys1; ELASKQVQFDPDSPETSKEVSALECEIQLLK
T7 construct: purchased ActivX Biosciences (KiNativ)
How it was run: as §1

PIP4K2B = system: T8, PIP4K2B; assay: KiNativ profiling in H3255 cells; assay type: cell-based, human; conditions: 2.5 µM; ATP; AKDLPTFKDNDFLNEGQK
T8 construct: purchased ActivX Biosciences (KiNativ)
How it was run: as §1

MAST3 = system: T9, MAST3; assay: KiNativ profiling in H3255 cells; assay type: cell-based, human; conditions: 2.5 µM; Lys2; DLKPDNLLITSLGHIK
T9 construct: purchased ActivX Biosciences (KiNativ)
How it was run: as §1

ROCK1, ROCK2 = assay: KiNativ profiling in H3255 cells; assay type: cell-based, human; conditions: 2.5 µM; Lys2; DVKPDNMLLDK
How it was run: as §1

EGFR-L858R = system: T10, EGFR-L858R; assay: KiNativ profiling in H3255 cells; assay type: cell-based, human; conditions: 2.5 µM; Activation Loop; AKLLGAEEK
T10 construct: purchased ActivX Biosciences (KiNativ)
How it was run: as §1

MASTL = system: T11, MASTL; assay: KiNativ profiling in H3255 cells; assay type: cell-based, human; conditions: 2.5 µM
T11 construct: purchased ActivX Biosciences (KiNativ)
How it was run: as §1

AurA, AurB, AurC = assay: KiNativ profiling in H3255 cells; assay type: cell-based, human; conditions: 2.5 µM; ATP Loop; GKFGNVYLAR
How it was run: as §1

CaMK2d = system: T12, CaMK2d; assay: KiNativ profiling in H3255 cells; assay type: cell-based, human; conditions: 2.5 µM; Lys1; IPTGQEYAAKIINTKK
T12 construct: purchased ActivX Biosciences (KiNativ)
How it was run: as §1

SYK = system: T13, SYK; assay: KiNativ profiling in H3255 cells; assay type: cell-based, human; conditions: 2.5 µM
T13 construct: purchased ActivX Biosciences (KiNativ)
How it was run: as §1

CCRK = system: T14, CCRK; assay: KiNativ profiling in H3255 cells; assay type: cell-based, human; conditions: 2.5 µM; Lys2; DLKPANLLISASGQLK
T14 construct: purchased ActivX Biosciences (KiNativ)
How it was run: as §1

MST4, YSK1 = assay: KiNativ profiling in H3255 cells; assay type: cell-based, human; conditions: 2.5 µM; Lys2; DIKAANVLLSEQGDVK
How it was run: as §1

DRAK1, DRAK2 = assay: KiNativ profiling in H3255 cells; assay type: cell-based, human; conditions: 2.5 µM; ATP Loop; GKFAVVR
How it was run: as §1

VRK2 = system: T15, VRK2; assay: KiNativ profiling in H3255 cells; assay type: cell-based, human; conditions: 2.5 µM; Lys2; MLDVLEYIHENEYVHGDIKAANLLLGYK
T15 construct: purchased ActivX Biosciences (KiNativ)
How it was run: as §1

CK1g3 = system: T16, CK1g3; assay: KiNativ profiling in H3255 cells; assay type: cell-based, human; conditions: 2.5 µM; Lys2; DVKPENFLIGRPGNK
T16 construct: purchased ActivX Biosciences (KiNativ)
How it was run: as §1

JAK1 domain2 = system: T17, JAK1 domain2; assay: KiNativ profiling in H3255 cells; assay type: cell-based, human; conditions: 2.5 µM
T17 construct: JAK1 domain2; purchased ActivX Biosciences (KiNativ)

[1] = system: EGFR^L858R/C797S Ba/F3 cells; assay: Antiproliferation assay (CellTiter-Glo); assay type: cell-based
Text: (1 picture or pasted object on this page, not shown here)
protease and phosphatase inhibitors.
Protein expression and purification

IKKb = system: T18, IKKb; assay: KiNativ profiling in H3255 cells; assay type: cell-based, human; conditions: 2.5 µM
T18 construct: purchased ActivX Biosciences (KiNativ)

[2] = Activation Loop, IGDFGLTKAIETDKEYYTVK
[3] = Lys1, YDPEGDNTGEQVAVKSLKPESGGNHIADLKK

Structure (SMILES)	Inhibition (MAP2K7) [%]	Inhibition (CHK2; Lys1, VAIKIISK) [%]	Inhibition (CHK2; Lys2, DLKPENVLLSSQEEDCLIK) [%]	Inhibition (PKN2) [%]	Inhibition (Erk5) [%]	Inhibition (PKN1) [%]	Inhibition (AKT1) [%]	Inhibition (MAP3K3) [%]	Inhibition (PIP4K2B) [%]	Inhibition (MAST3) [%]	Inhibition (ROCK1, ROCK2) [%]	Inhibition (EGFR-L858R) [%]	Inhibition (MASTL; ATP Loop, GAFGKVYLGQK) [%]	Inhibition (MASTL; Lys1, LYAVKVVK) [%]	Inhibition (AurA, AurB, AurC) [%]	Inhibition (CaMK2d) [%]	Inhibition (SYK; Activation Loop, ISDFGLSKALR) [%]	Inhibition (SYK; Lys1, TVAVKILK) [%]	Inhibition (CCRK) [%]	Inhibition (MST4, YSK1) [%]	further results
C=CC(=O)Nc1cc(Nc2nccc(-c3cn(C)c4ccccc34)n2)c(OC)cc1N(C)CCN(C)C [Osimertinib, osimertinib, reference compound]	-1.4	17.8	11.1	9.8	-4.1	-12.2	-19.5	10.8	-4.2	-21.8	-1.6	98.2	16.6	23.8	20.5	-3.1	-19.6	-0.9	16.1	-8.7	Inhibition (DRAK1, DRAK2): 13.6%; Inhibition (VRK2): 6.4%; Inhibition (CK1g3): 7.1%; Inhibition (JAK1 domain2; [2]): -24.5%; Inhibition (JAK1 domain2; [3]): -22.2%; activity loss in cells dependent on EGFR^C797S for growth [1]: 300 fold; Inhibition (IKKb; Lys1, WHNQETGEQIAIKQCR): -16.0%; Inhibition (IKKb; Lys2, DLKPENIVLQQGEQR): -28.9%
C=CC(=O)Nc1cc(C(=O)Nc2nc3cccc(C)c3n2[C@@H]2CCCCN(C(=O)C=C)C2)cs1 [ZNL-0056]	90.7	23.8	13.8	22.0	-18.2	8.5	-1.6	-6.3	16.6	3.9	-10.4	97.2	13.0	16.2	2.2	-4.1	4.4	4.7	2.1	-9.0	Inhibition (DRAK1, DRAK2): 46.6%; Inhibition (VRK2): 7.9%; Inhibition (CK1g3): 18.0%; Inhibition (JAK1 domain2; [2]): 4.7%; Inhibition (JAK1 domain2; [3]): 4.4%; activity loss in cells dependent on EGFR^C797S for growth ([1]; vs EGFR^L858R Ba/F3): 50 fold; Inhibition (IKKb; Lys1, WHNQETGEQIAIKQCR): 11.2%; Inhibition (IKKb; Lys2, DLKPENIVLQQGEQR): 2.0%

Source: article PMC11212140, “Molecular Bidents with Two Electrophilic Warheads as a New Pharmacological Modality” (ACS Central Science, 2024)
